This passage reports Ki results from patent US20250122225A1, “MASP-2 INHIBITORS AND METHODS OF USE” (Omeros Corporation, priority 2023, published 2025).

Molecules are shown by their SMILES. Structures can show the parent of a compound that is named as a salt.

For one assay, the target named is T1, human α-thrombin (Homo sapiens, UniProt P00734).
T1 construct: enzyme (human α-thrombin (BioPharm® Lab.)) in assay buffer; purchased BioPharm® Lab
Kind of assay: Enzymatic assay for thrombin (fluorogenic peptide substrate Boc-VPR-AMC). It counts as biochemical. An outline of the steps: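 Human α-thrombin was run with the fluorogenic substrate Boc-VPR-AMC in 20 mM Hepes pH 7.4, 140 mM NaCl, 0.1% Tween 20 at room temperature for 20 min, then stopped with 0.1 M acetic acid. % activity was normalized to DMSO and no-enzyme controls. Under linear conditions IC50 equalled Ki, except for tight-binding inhibitors.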

In another assay the target is T2, MASP-2 (CCP1-CCP2-SP) (Homo sapiens, UniProt O00187).
T2 construct: 15 μL of Enzyme MASP-2 (CCP1-CCP2-SP) in Assay Buffer
Kind of assay: Enzymatic assay for MASP-2 inhibitory activity (fluorogenic substrate). It counts as biochemical. Put shortly: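 MASP-2 (CCP1-CCP2-SP) cleaved a fluorogenic substrate based on the C2 cleavage site in 20 mM HEPES pH 7.4, 140 mM NaCl, 0.1% Tween 20 at room temperature. After 20 min the reaction was stopped with 0.1 M acetic acid and fluorescence read. % activity was normalized to DMSO-only and no-enzyme controls; IC50 taken as Ki.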

T2 sequence (O00187 445-686 limits assumed): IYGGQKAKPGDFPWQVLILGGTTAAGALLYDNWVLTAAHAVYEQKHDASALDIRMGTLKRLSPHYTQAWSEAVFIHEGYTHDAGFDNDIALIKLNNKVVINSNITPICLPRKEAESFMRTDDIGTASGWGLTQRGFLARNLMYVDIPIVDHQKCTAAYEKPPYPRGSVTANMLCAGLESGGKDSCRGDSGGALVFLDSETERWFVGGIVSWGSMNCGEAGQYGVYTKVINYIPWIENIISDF
T2 sequence (O00187 287-444 partner limits assumed): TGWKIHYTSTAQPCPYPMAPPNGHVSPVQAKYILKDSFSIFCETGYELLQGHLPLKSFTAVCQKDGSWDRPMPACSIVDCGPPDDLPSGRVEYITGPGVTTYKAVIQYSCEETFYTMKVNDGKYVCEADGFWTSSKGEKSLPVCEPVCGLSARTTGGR

Take `Cc1cccc(CNc2nc(Cl)c3n(c2=O)[C@H](C(=O)NCc2cc4cnccc4[nH]2)CC3)c1` [Compound 114, (S)-N-((1H-pyrrolo[3,2-c]pyridin-2-yl)methyl)-1-chloro-3-((3-methylbenzyl)amino)-4-oxo-4,6,7,8-tetrahydropyrrolo[1,2-a]pyrazine-6-carboxamide trifluoroacetate]: the Ki at human α-thrombin was 2500 to 10000 nM; on MASP-2 (CCP1-CCP2-SP), < 500 nM.
For `Cc1cccc(CNc2ncc3n(c2=O)[C@H](C(=O)NCc2cc4cnccc4[nH]2)CC3)c1` [Compound 115, (S)-N-((1H-pyrrolo[3,2-c]pyridin-2-yl)methyl)-3-((3-methylbenzyl)amino)-4-oxo-4,6,7,8-tetrahydropyrrolo[1,2-a]pyrazine-6-carboxamide trifluoroacetate], in that order: 500 to 2500 nM and < 500 nM.
On the same counts, the results for `Cc1nc(N)ccc1CNC(=O)[C@@H]1CCc2cnc(NCC3CCOCC3)c(=O)n21` [Compound 116, (S)—N-((6-amino-2-methylpyridin-3-yl)methyl)-4-oxo-3-(((tetrahydro-2H-pyran-4-yl)methyl)amino)-4,6,7,8-tetrahydropyrrolo[1,2-a]pyrazine-6-carboxamide] are 500 to 2500 nM and < 500 nM.
`O=C(NCc1cc2cnccc2[nH]1)[C@@H]1CCc2cnc(NCc3cccc(C(F)(F)F)c3)c(=O)n21` [Compound 117, (S)-N-((1H-pyrrolo[3,2-c]pyridin-2-yl)methyl)-4-oxo-3-((3-(trifluoromethyl)benzyl)amino)-4,6,7,8-tetrahydropyrrolo[1,2-a]pyrazine-6-carboxamide trifluoroacetate]: the inhibition constant Ki on human α-thrombin is 2500 to 10000 nM; on MASP-2 (CCP1-CCP2-SP), < 500 nM.
On the same counts, the results for `Cc1nc(N)ccc1CNC(=O)[C@@H]1CCc2c(Cl)nc(NCC3CCOC3)c(=O)n21` (stereo partly drawn) [Compound 118, (6S)—N-((6-amino-2-methylpyridin-3-yl)methyl)-1-chloro-4-oxo-3-(((tetrahydrofuran-3-yl)methyl)amino)-4,6,7,8-tetrahydropyrrolo[1,2-a]pyrazine-6-carboxamide] are 10000 to 25000 nM and < 500 nM.
Regarding `O=C(NCc1cc2c(s1)CNC2)[C@@H]1CCc2cnc(N3CC(c4ccccc4)C3)c(=O)n21` [Compound 119, (S)—N-((5,6-dihydro-4H-thieno[2,3-c]pyrrol-2-yl)methyl)-4-oxo-3-(3-phenylazetidin-1-yl)-4,6,7,8-tetrahydropyrrolo[1,2-a]pyrazine-6-carboxamide], the Ki is > 25000 nM at human α-thrombin and 2500 to 10000 nM at MASP-2 (CCP1-CCP2-SP).
For `N#Cc1nc(NCc2ccccc2)c(=O)n2c1CC[C@H]2C(=O)NCc1cc2cnccc2[nH]1` [Compound 121, (S)—N-((1H-pyrrolo[3,2-c]pyridin-2-yl)methyl)-3-(benzylamino)-1-cyano-4-oxo-4,6,7,8-tetrahydropyrrolo[1,2-a]pyrazine-6-carboxamide trifluoroacetate], in that order: 10000 to 25000 nM and < 500 nM.
For `Cc1cc(C)cc(CNc2ncc3n(c2=O)[C@H](C(=O)NCc2ccc(N)nc2C)CC32CC2)c1` [Compound 122, (S)—N-((6-amino-2-methylpyridin-3-yl)methyl)-3′-((3,5-dimethylbenzyl)amino)-4′-oxo-6′,7′-dihydro-4′H-spiro[cyclopropane-1,8′-pyrrolo[1,2-a]pyrazine]-6′-carboxamide trifluoroacetate], in that order: < 500 nM and < 500 nM.
For `Cc1cc(C)cc(CNc2ncc3n(c2=O)[C@H](C(=O)NCc2cc4cnccc4[nH]2)CC32CC2)c1` [Compound 123, (S)-N-((1H-pyrrolo[3,2-c]pyridin-2-yl)methyl)-3′-((3,5-dimethylbenzyl)amino)-4′-oxo-6′,7′-dihydro-4′H-spiro[cyclopropane-1,8′-pyrrolo[1,2-a]pyrazine]-6′-carboxamide trifluoroacetate], in that order: 500 to 2500 nM and < 500 nM.
Regarding `Cc1cc(C)cc(CNc2ncc3n(c2=O)[C@H](C(=O)NCc2cc4cnc(C)cc4[nH]2)CC32CC2)c1` [Compound 124, (S)-3′-((3,5-dimethylbenzyl)amino)-N-((6-methyl-1H-pyrrolo[3,2-c]pyridin-2-yl)methyl)-4′-oxo-6′,7′-dihydro-4′H-spiro[cyclopropane-1,8′-pyrrolo[1,2-a]pyrazine]-6′-carboxamide trifluoroacetate], the results for the Ki at human α-thrombin and on MASP-2 (CCP1-CCP2-SP) were > 25000 nM and < 500 nM, respectively.
For `O=C(NCc1cc2cnccc2[nH]1)[C@@H]1CC2(CC2)c2cnc(NCc3ccccc3)c(=O)n21` [Compound 125, (S)-N-((1H-pyrrolo[3,2-c]pyridin-2-yl)methyl)-3′-(benzylamino)-4′-oxo-6′,7′-dihydro-4′H-spiro[cyclopropane-1,8′-pyrrolo[1,2-a]pyrazine]-6′-carboxamide], in that order: 2500 to 10000 nM and < 500 nM.
For `Cc1cc(C)cc(CNc2ncc3n(c2=O)[C@H](C(=O)NCc2cc4c(s2)CNC4)CC32CC2)c1` [Compound 126, (S)—N-((5,6-dihydro-4H-thieno[2,3-c]pyrrol-2-yl)methyl)-3′-((3,5-dimethylbenzyl)amino)-4′-oxo-6′,7′-dihydro-4′H-spiro[cyclopropane-1,8′-pyrrolo[1,2-a]pyrazine]-6′-carboxamide], in that order: 500 to 2500 nM and < 500 nM.
As for `O=C(NCc1cc2c(s1)CNC2)[C@@H]1CC2(CC2)c2cnc(NCc3ccccc3)c(=O)n21` [Compound 127, (S)-3′-(benzylamino)-N-((5,6-dihydro-4H-thieno[2,3-c]pyrrol-2-yl)methyl)-4′-oxo-6′,7′-dihydro-4′H-spiro[cyclopropane-1,8′-pyrrolo[1,2-a]pyrazine]-6′-carboxamide trifluoroacetate], the results for the Ki at human α-thrombin and at MASP-2 (CCP1-CCP2-SP) were 2500 to 10000 nM and < 500 nM, respectively.
On the same counts, the results for `O=C(NCc1cc2cnccc2[nH]1)[C@@H]1CC2(CC2)c2c(Cl)nc(NCc3ccccc3)c(=O)n21` [Compound 128, (S)—N-((1H-pyrrolo[3,2-c]pyridin-2-yl)methyl)-3′-(benzylamino)-1′-chloro-4′-oxo-6′,7′-dihydro-4′H-spiro[cyclopropane-1,8′-pyrrolo[1,2-a]pyrazine]-6′-carboxamide] are 2500 to 10000 nM and < 500 nM.
On the same counts, the results for `CC[C@H]1C[C@@H](C(=O)NCc2cc3cnc(C)cc3[nH]2)n2c1cnc(NCc1cc(C)cc(C)c1)c2=O` [Compound 129, (6S,8S)-3-((3,5-dimethylbenzyl)amino)-8-ethyl-N-((6-methyl-1H-pyrrolo[3,2-c]pyridin-2-yl)methyl)-4-oxo-4,6,7,8-tetrahydropyrrolo[1,2-a]pyrazine-6-carboxamide] are 10000 to 25000 nM and < 500 nM.
For `C[C@H]1C[C@@H](C(=O)NCc2cc3cnccc3[nH]2)n2c1c(Cl)nc(NCc1ccccc1)c2=O` [Compound 130, (6S,8S)—N-((1H-pyrrolo[3,2-c]pyridin-2-yl)methyl)-3-(benzylamino)-1-chloro-8-methyl-4-oxo-4,6,7,8-tetrahydropyrrolo[1,2-a]pyrazine-6-carboxamide], in that order: > 25000 nM and < 500 nM.
`Cc1cc(C)cc(CNc2nc(Cl)c3n(c2=O)[C@H](C(=O)NCc2cc4cnccc4[nH]2)C[C@@H]3C)c1` [Compound 132, (6S,8S)-N-((1H-pyrrolo[3,2-c]pyridin-2-yl)methyl)-1-chloro-3-((3,5-dimethylbenzyl)amino)-8-methyl-4-oxo-4,6,7,8-tetrahydropyrrolo[1,2-a]pyrazine-6-carboxamide]: the Ki at human α-thrombin is > 25000 nM; on MASP-2 (CCP1-CCP2-SP) it was < 500 nM.
On the same counts, the results for `O=C(NCc1cc2cnccc2[nH]1)[C@@H]1CCc2c(Cl)nc(NCc3cccc(C4CC4)c3)c(=O)n21` [Compound 133, (S)-N-((1H-pyrrolo[3,2-c]pyridin-2-yl)methyl)-1-chloro-3-((3-cyclopropylbenzyl)amino)-4-oxo-4,6,7,8-tetrahydropyrrolo[1,2-a]pyrazine-6-carboxamide] are 2500 to 10000 nM and < 500 nM.
On the same counts, the results for `CC[C@H]1C[C@@H](C(=O)NCc2ccc(N)nc2C)n2c1c(Cl)nc(NCc1ccccc1)c2=O` [Compound 134, (6S,8S)-N-((6-amino-2-methylpyridin-3-yl)methyl)-3-(benzylamino)-1-chloro-8-ethyl-4-oxo-4,6,7,8-tetrahydropyrrolo[1,2-a]pyrazine-6-carboxamide] are 500 to 2500 nM and < 500 nM.
For `Cc1nc(N)ccc1CNC(=O)[C@H]1CCc2c(Cl)nc(NCc3ccccc3)c(=O)n21` [Compound 135, (R)-N-((6-amino-2-methylpyridin-3-yl)methyl)-3-(benzylamino)-1-chloro-4-oxo-4,6,7,8-tetrahydropyrrolo[1,2-a]pyrazine-6-carboxamide], in that order: 2500 to 10000 nM and < 500 nM.
Regarding `Cc1nc(N)ccc1CNC(=O)[C@@H]1CCc2c(Cl)nc(NCc3cccnc3)c(=O)n21` [Compound 136, (S)-N-((6-amino-2-methylpyridin-3-yl)methyl)-1-chloro-4-oxo-3-((pyridin-3-ylmethyl)amino)-4,6,7,8-tetrahydropyrrolo[1,2-a]pyrazine-6-carboxamide], the Ki at human α-thrombin is 500 to 2500 nM; on MASP-2 (CCP1-CCP2-SP), < 500 nM.
For `COc1cc(C)cc(CNc2ncc3n(c2=O)[C@H](C(=O)NCc2cc4cnc(C)cc4[nH]2)C[C@@H]3Cc2ccccc2)c1` [Compound 137, (6S,8S)-8-benzyl-3-((3-methoxy-5-methylbenzyl)amino)-N-((6-methyl-1H-pyrrolo[3,2-c]pyridin-2-yl)methyl)-4-oxo-4,6,7,8-tetrahydropyrrolo[1,2-a]pyrazine-6-carboxamide], in that order: > 25000 nM and < 500 nM.

By Ki is commonly meant the equilibrium dissociation constant of an inhibitor or competing ligand from its target. A higher Ki goes with a looser hold on the target.
